Results taken from patent US9889146B2, “Benzoxaborole compounds and uses thereof” (priority 2012, dated 2018).
Values after ≈ are worked out from the molar mass of the structure shown.

What was measured:
Assay type in all cases: cell-based
[1] = system: E. coli ATCC 25922 wild type and mutants; test: MIC, wild type and GSK2251052 resistant mutants; settings: Escherichia coli
Description: (§1) Spontaneous Resistance Frequency was determined in vitro for GSK2251052 and the resistance mutants in E. coli ATCC 25922, K. pneumoniae ATCC 13883, and P. aeruginosa ATCC 27853 strains were characterized. GSK2251052 was prepared as described in U.S. Pat. No. 7,816,344 (the entire contents of which are hereby incorporated by reference herein). LB broth, Mueller Hinton II broth (adjusted), and Difco noble agar were obtained from Becton Dickinson (Cockeysville, Md., USA). M9 minimal broth containing 1×M9 salt, 0.5 μg/ML thiamine, 1 mM MgSO4, 0.1 mM CaCl2, 2% glucose, was obtained from Teknova (Hollister, Calif., USA). Antibacterial agents ciprofloxacin, ceftazidime, chloramphenicol, gentamycin, kanamycin, polymixin B, tobramycin and trimethoprim, and amino acids were obtained from Sigma Chemicals (St. Louis, Mo., USA). Strains were obtained from ATCC (Manassas, Va., USA).
(§2) Susceptibility tests were performed following the recommendations for aerobic bacteria (M7-A7) from the Clinical and Laboratories Standards Institute (CLSI).
(§3) Laboratory generated mutants resistant to GSK2251052 contain mutations in the editing domain of LeuRS. Six to ten GSK2251052 resistant colonies of E. coli ATCC 25922, K. pneumoniae ATCC 13883 and P. aeruginosa ATCC 27853 were selected for further analysis and their MICs to GSK2251052 were determined (Table 4-7).

[2] = system: K. pneumoniae ATCC 13883 wild type and mutants; test: MIC, wild type and GSK2251052 resistant mutants; settings: Klebsiella pneumoniae
Description: as §1, §2, §3

[3] = system: P. aeruginosa ATCC 27853 wild type and mutants; test: MIC, wild type and GSK2251052 resistant mutants; settings: Pseudomonas aeruginosa
Description: as §1, §2, §3

[4] = system: Escherichia coli 1161435 parent and mutant strains B4, B26 and B35; test: Sensitivity to leucine analogs in MH and M9 media
[5] = system: E. coli ATCC 25922 wild type and mutants; test: MIC in M9 minimal media; settings: Escherichia coli, read-out: MICs in M9 minimal media
Description: as §1, §2
(§4) The aminoacyl-tRNA synthetase enzyme, LeuRS, ensures the correct amino acid, leucine, is attached to tRNA^Leu. The LeuRS synthetic active site is capable of aminoacylating tRNA^Leu with amino acids structural similar to leucine (norvaline, norleucine, isoleucine and methionine). These mischarged tRNA^Leu are hydrolyzed by the editing domain, thus preventing the deleterious incorporation of incorrect amino acids into the growing polypeptide. The laboratory generated mutants were further tested for their ability to grow in defined media with exogenously added amino acids. Norvaline and norleucine, structurally similar to leucine, were tested in M9 minimal media. […]

[6] = system: K. pneumoniae ATCC 13883 wild type and mutants; test: MIC in M9 minimal media; settings: Klebsiella pneumoniae, read-out: MICs in M9 minimal media
Description: as §1, §2, §4

[7] = system: P. aeruginosa ATCC 27853 wild type and mutants; test: MIC in M9 minimal media; settings: Pseudomonas aeruginosa, read-out: MICs in M9 minimal media
Description: as §1, §2, §4

P. aeruginosa = test: In vitro activity against P. aeruginosa clinical isolates; settings: P. aeruginosa, 2,008 clinical isolates; GSK2251052 based on potential susceptible breakpoint of ≦4 μg/mL
Description: GSK2251052 was tested for activity against P. aeruginosa, and its activity was compared to other antibiotics of known activity. The results are shown below in Tables 2a and 2b. Of 2,008 clinical isolates tested (from 2009-2010 subjects, of which 40% were from North America) greater than 90% were susceptible to GSK2251052 based on a potential susceptible breakpoint of ≦4 μg/mL.

Molecule | MIC (sensitivity to leucine analogs) ([4]; 1161435 Parent, M9) [µg/mL] | MIC (sensitivity to leucine analogs) ([4]; 1161435 Parent, MH) [µg/mL] | MIC (sensitivity to leucine analogs) ([4]; B4 (P339L), M9) [µg/mL] | MIC (sensitivity to leucine analogs) ([4]; B4 (P339L), MH) [µg/mL] | MIC (sensitivity to leucine analogs) ([4]; B26 (R334H), M9) [µg/mL] | MIC (sensitivity to leucine analogs) ([4]; B26 (R334H), MH) [µg/mL] | MIC (sensitivity to leucine analogs) ([4]; B35 (D251N), M9) [µg/mL] | MIC (sensitivity to leucine analogs) ([4]; B35 (D251N), MH) [µg/mL] | other results
NC[C@H]1O[C@H](O[C@H]2[C@H](O)[C@@H](O[C@H]3O[C@H](CO)[C@@H](O)[C@H](N)[C@H]3O)[C@H](N)C[C@@H]2N)[C@H](O)[C@@H](O)[C@@H]1O [Kanamycin] | – | – | – | – | – | – | – | – | MIC ([1]; ATCC25922, E wt, read-out: MICs): 4 µg/mL (≈ 8.26 µM); MIC ([1]; ATCC25922, read-out: MICs, mutant E 101): 4 µg/mL (≈ 8.26 µM); MIC ([1]; ATCC25922, read-out: MICs, mutant E 102): 4 µg/mL (≈ 8.26 µM); MIC ([1]; ATCC25922, read-out: MICs, mutant E 107): 8 µg/mL (≈ 16.5 µM); MIC ([2]; ATCC13883, K wt., read-out: MICs): 2 µg/mL (≈ 4.13 µM); MIC ([2]; ATCC13883, read-out: MICs, mutant K 104): 2 µg/mL (≈ 4.13 µM); MIC ([2]; ATCC13883, read-out: MICs, mutant K 105): 2 µg/mL (≈ 4.13 µM); MIC ([2]; ATCC13883, read-out: MICs, mutant K 107): 2 µg/mL (≈ 4.13 µM); MIC ([2]; ATCC13883, read-out: MICs, mutant K 108): 2 µg/mL (≈ 4.13 µM); MIC ([2]; ATCC13883, read-out: MICs, mutant K 110): 1 µg/mL (≈ 2.06 µM); MIC ([3]; ATCC27853, P wt., read-out: MICs): > 64 µg/mL; MIC ([3]; ATCC27853, read-out: MICs, mutant P 101): > 64 µg/mL; MIC ([3]; ATCC27853, read-out: MICs, mutant P106): > 64 µg/mL; MIC ([3]; ATCC27853, read-out: MICs, mutant P108): > 64 µg/mL
NC(CC1CCCC1)C(=O)O (racemic) [3-Cyclopentyl-DL-Alanine] | > 128 | > 128 | > 128 | > 128 | > 128 | > 128 | > 128 | > 128 | –
CCCC[C@H](N)C(=O)O [Norleucine, L-Norleucine] | 32 | > 128 | 16 | > 128 | 8 | > 128 | 16 | > 128 | MIC ([5]; ATCC25922, E 101(leuRS Y246H)): 2 µg/mL (≈ 15.2 µM); MIC ([5]; ATCC25922, E 102(leuRS D345G)): 4 µg/mL (≈ 30.5 µM); MIC ([5]; ATCC25922, E 107(leuRS G229S)): 4 µg/mL (≈ 30.5 µM); MIC ([5]; ATCC25922, E. coli ATCC25922): 4 µg/mL (≈ 30.5 µM); MIC ([6]; ATCC13883, K 104(leuRS D345Y)): 16 µg/mL (≈ 122 µM); MIC ([6]; ATCC13883, K 105(leuRS G229R)): 32 µg/mL (≈ 244 µM); MIC ([6]; ATCC13883, K 107(leuRS S227F)): 64 µg/mL (≈ 488 µM); MIC ([6]; ATCC13883, K 108(leuRS T248P)): 64 µg/mL (≈ 488 µM); MIC ([6]; ATCC13883, K 110(leuRS V338L)): > 64 µg/mL; MIC ([6]; ATCC13883, Klebsiella pneumoniae ATCC13883): 32 µg/mL (≈ 244 µM); MIC ([7]; ATCC27853, P 101 (leuRS T256P)): > 64 µg/mL; MIC ([7]; ATCC27853, P 106 (leuRS V342M)): > 64 µg/mL; MIC ([7]; ATCC27853, P 108 (leuRS T252P)): > 64 µg/mL; MIC ([7]; ATCC27853, P. aeruginosa ATCC27853): > 64 µg/mL; sensitivity of the mutants ([4]; mutant strains in M9 minimal media): some sensitivity
CC(=O)CC(N)C(=O)O (racemic) [DL-oxonorvaline] | 128 | > 256 | 64 | > 256 | 64 | > 256 | 128 | > 256 | –
Colistin | – | – | – | – | – | – | – | – | % susceptible (P. aeruginosa): 62.3%
C[C@@H](O)[C@H](N)C(=O)O [L-Threonine] | > 128 | > 128 | > 128 | > 128 | > 128 | > 128 | > 128 | > 128 | –
C=CCC(N)C(=O)O (racemic) [DL-2-Allylglycine] | 16 | > 128 | 16 | > 128 | 16 | > 128 | 32 | > 128 | –
NCC[C@H](O)C(=O)N[C@@H]1C[C@H](N)[C@@H](O[C@H]2O[C@H](CN)[C@@H](O)[C@H](O)[C@H]2O)[C@H](O)[C@H]1O[C@H]1O[C@H](CO)[C@@H](O)[C@H](N)[C@H]1O [Amikacin] | – | – | – | – | – | – | – | – | % susceptible (P. aeruginosa): 90.2%
CN(C)CC(N)C(=O)O.Cl.Cl (racemic) [4-Aza-DL-Leucine dihydrochloride] | 64 | > 128 | 64 | > 128 | 64 | > 128 | 32 | > 128 | –
CSCC[C@H](N)C(=O)O [L-Methionine] | > 128 | > 128 | > 128 | > 128 | > 128 | > 128 | > 128 | > 128 | –
CC(C)[C@H](N)C(=O)O [L-Valine] | > 128 | > 128 | > 128 | > 128 | > 128 | > 128 | > 128 | > 128 | –
CC(CC(N)C(=O)O)C(F)(F)F (racemic) [5,5,5-Trifluoro-DL-Leucine] | 128 | > 128 | 128 | > 128 | 64 | > 128 | 64 | > 128 | –
CC[C@H](C)[C@H](N)C(=O)O [L-Isoleucine] | > 128 | > 128 | > 128 | > 128 | > 128 | > 128 | > 128 | > 128 | –
